Several values for one entry are separate records, joined by “and”; a condition that tells them apart may be missing. Equal values may be shown once. Inconclusive results and toxic doses are left out.
Tested on: BDF1 mice, intracerebral L1210 leukemia, survival T/C
Assay: NCI In Vivo Anticancer Drug Screen. Data for tumor model L1210 Leukemia (intracerebral) in B6D2F1 (BDF1) mice
Conditions: endpoint: mean survival time, higher = longer survival
How it was run: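 Transplantable tumour-bearing mice, compound-treated vs vehicle controls; read-out survival, reported as T/C ratio.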

[1] = dose: 15.0 mg/kg/injection, schedule: Q01DX001 (ip), vehicle: carboxymethylcellulose (CMC)
[2] = dose: 20.0 mg/kg/injection, schedule: Q01DX001 (ip), vehicle: carboxymethylcellulose (CMC)
[3] = dose: 30.0 mg/kg/injection, schedule: Q01DX001 (ip), vehicle: carboxymethylcellulose (CMC)
[4] = dose: 40.0 mg/kg/injection, schedule: Q01DX001 (ip), vehicle: carboxymethylcellulose (CMC)
[5] = dose: 150.0 mg/kg/injection, schedule: Q01DX001 (ip), vehicle: carboxymethylcellulose (CMC)
[6] = dose: 300.0 mg/kg/injection, schedule: Q01DX001 (ip), vehicle: carboxymethylcellulose (CMC)
[7] = dose: 26.0 mg/kg/injection, schedule: Q01DX001 (ip), vehicle: carboxymethylcellulose (CMC)

## O=NN(CCCl)C(=O)Nc1c[nH]c(=O)[nH]c1=O
dose: 4.4 mg/kg/injection, schedule: Q01DX001 (ip), vehicle: carboxymethylcellulose (CMC)
  T/C: 103 % of control
dose: 6.7 mg/kg/injection, schedule: Q01DX001 (ip), vehicle: carboxymethylcellulose (CMC)
  T/C: 101 % of control
dose: 10.0 mg/kg/injection, schedule: Q01DX001 (ip), vehicle: carboxymethylcellulose (CMC)
  T/C: 102 % of control
[1]
  T/C: 103 % of control
[2]
  T/C: 98 % of control
[3]
  T/C: 107 % of control
[4]
  T/C: 100 % of control
dose: 60.0 mg/kg/injection, schedule: Q01DX001 (ip), vehicle: carboxymethylcellulose (CMC)
  T/C: 94 % of control

## CN(N=O)C(=O)Nc1ccccc1
[5]
  T/C: 103 % of control
[6]
  T/C: 98 % of control

## CN(N=O)C(=O)NCCCNC(=O)N(C)N=O
[5]
  T/C: 108 % of control
[6]
  T/C: 119 % of control

## CNC(=O)NC(=O)N(C)N=O
[1]
  T/C: 105 % of control
dose: 22.6 mg/kg/injection, schedule: Q01DX001 (ip), vehicle: carboxymethylcellulose (CMC)
  T/C: 105 % of control
dose: 34.0 mg/kg/injection, schedule: Q01DX001 (ip), vehicle: carboxymethylcellulose (CMC)
  T/C: 98 % of control
dose: 51.0 mg/kg/injection, schedule: Q01DX001 (ip), vehicle: carboxymethylcellulose (CMC)
  T/C: 112 % of control
dose: 77.0 mg/kg/injection, schedule: Q01DX001 (ip), vehicle: carboxymethylcellulose (CMC)
  T/C: 109 % of control and 111 % of control
dose: 117.0 mg/kg/injection, schedule: Q01DX001 (ip), vehicle: carboxymethylcellulose (CMC)
  T/C: 91 % of control
dose: 175.0 mg/kg/injection, schedule: Q01DX001 (ip), vehicle: carboxymethylcellulose (CMC)
  T/C: 87 % of control

## O=NN(CCCl)C(=O)NC12CC3CC(CC(C3)C1)C2
[7]
  T/C: 108 % of control
[4]
  T/C: 112 % of control
dose: 90.0 mg/kg/injection, schedule: Q01DX001 (ip), vehicle: carboxymethylcellulose (CMC)
  T/C: 120 % of control

## O=NN(CCCl)C(=O)NC1CCSCC1
dose: 3.0 mg/kg/injection, schedule: Q01DX001 (ip), vehicle: carboxymethylcellulose (CMC)
  T/C: 114 % of control
dose: 5.0 mg/kg/injection, schedule: Q01DX001 (ip), vehicle: carboxymethylcellulose (CMC)
  T/C: 152 % of control and 154 % of control
dose: 6.0 mg/kg/injection, schedule: Q01DX001 (ip), vehicle: carboxymethylcellulose (CMC)
  T/C: 161 % of control
dose: 8.0 mg/kg/injection, schedule: Q01DX001 (ip), vehicle: carboxymethylcellulose (CMC)
  T/C: 203 % of control and 208 % of control
dose: 9.0 mg/kg/injection, schedule: Q01DX001 (ip), vehicle: carboxymethylcellulose (CMC)
  T/C: 217 % of control
dose: 12.0 mg/kg/injection, schedule: Q01DX001 (ip), vehicle: carboxymethylcellulose (CMC)
  T/C: 245 % of control and 316 % of control
dose: 14.0 mg/kg/injection, schedule: Q01DX001 (ip), vehicle: carboxymethylcellulose (CMC)
  T/C: 286 % of control
dose: 18.0 mg/kg/injection, schedule: Q01DX001 (ip), vehicle: carboxymethylcellulose (CMC)
  T/C: 230 % of control
dose: 21.0 mg/kg/injection, schedule: Q01DX001 (ip), vehicle: carboxymethylcellulose (CMC)
  T/C: 155 % of control
dose: 27.0 mg/kg/injection, schedule: Q01DX001 (ip), vehicle: carboxymethylcellulose (CMC)
  T/C: 94 % of control
dose: 32.0 mg/kg/injection, schedule: Q01DX001 (ip), vehicle: carboxymethylcellulose (CMC)
  T/C: 93 % of control

## C=CCNC(=O)NCC=C
dose: 25.0 mg/kg/injection, schedule: Q01DX009 (ip), vehicle: saline
  T/C: 101 % of control
dose: 50.0 mg/kg/injection, schedule: Q01DX009 (ip), vehicle: saline
  T/C: 103 % of control
dose: 100.0 mg/kg/injection, schedule: Q01DX009 (ip), vehicle: saline
  T/C: 97 % of control
dose: 200.0 mg/kg/injection, schedule: Q01DX009 (ip), vehicle: saline
  T/C: 105 % of control

## O=NN(CCCl)C(=O)Nc1ccc(NC(=O)N(CCCl)N=O)cc1
dose: 44.0 mg/kg/injection, schedule: Q01DX009 (ip), vehicle: carboxymethylcellulose (CMC)
  T/C: 186 % of control
dose: 67.0 mg/kg/injection, schedule: Q01DX009 (ip), vehicle: carboxymethylcellulose (CMC)
  T/C: 181 % of control
dose: 100.0 mg/kg/injection, schedule: Q01DX009 (ip), vehicle: carboxymethylcellulose (CMC)
  T/C: 160 % of control
dose: 109.0 mg/kg/injection, schedule: Q01DX001 (ip), vehicle: carboxymethylcellulose (CMC)
  T/C: 119 % of control and 124 % of control
dose: 225.0 mg/kg/injection, schedule: Q01DX009 (ip), vehicle: carboxymethylcellulose (CMC)
  T/C: 94 % of control
dose: 264.0 mg/kg/injection, schedule: Q01DX001 (ip), vehicle: carboxymethylcellulose (CMC)
  T/C: 168 % of control
dose: 366.0 mg/kg/injection, schedule: Q01DX001 (ip), vehicle: carboxymethylcellulose (CMC)
  T/C: 168 % of control and 182 % of control
dose: 400.0 mg/kg/injection, schedule: Q01DX001 (ip), vehicle: carboxymethylcellulose (CMC)
  T/C: 181 % of control
dose: 550.0 mg/kg/injection, schedule: Q01DX001 (ip), vehicle: carboxymethylcellulose (CMC)
  T/C: 155 % of control and 167 % of control
dose: 600.0 mg/kg/injection, schedule: Q01DX001 (ip), vehicle: carboxymethylcellulose (CMC)
  T/C: 172 % of control
dose: 900.0 mg/kg/injection, schedule: Q01DX001 (ip), vehicle: carboxymethylcellulose (CMC)
  T/C: 190 % of control
dose: 1350.0 mg/kg/injection, schedule: Q01DX001 (ip), vehicle: carboxymethylcellulose (CMC)
  T/C: 173 % of control

## C=CC(CN1CC1)OC(C)=O (stereo not drawn)
dose: 2.5 mg/kg/injection, schedule: Q01DX Z (ip), vehicle: saline
  T/C: 119 % of control
dose: 11.0 mg/kg/injection, schedule: Q01DX001 (ip), vehicle: saline
  T/C: 113 % of control and 117 % of control
dose: 17.0 mg/kg/injection, schedule: Q01DX001 (ip), vehicle: saline
  T/C: 117 % of control
dose: 25.0 mg/kg/injection, schedule: Q01DX001 (ip), vehicle: saline
  T/C: 119 % of control
dose: 25.0 mg/kg/injection, schedule: Q01DX Z (ip), vehicle: saline
  T/C: 120 % of control
dose: 30.0 mg/kg/injection, schedule: Q01DX Z (ip), vehicle: saline
  T/C: 105 % of control

## O=NN(CCCl)C(=O)NC1CC2CCC1C2 (stereo not drawn)
dose: 14.5 mg/kg/injection, schedule: Q01DX001 (ip), vehicle: other
  T/C: 124 % of control
[7]
  T/C: 196 % of control
dose: 29.25 mg/kg/injection, schedule: Q01DX001 (oral), vehicle: other
  T/C: 162 % of control and 176 % of control and 191 % of control
dose: 39.0 mg/kg/injection, schedule: Q01DX001 (ip), vehicle: other
  T/C: 236 % of control
dose: 41.0 mg/kg/injection, schedule: Q01DX001 (ip), vehicle: carboxymethylcellulose (CMC)
  T/C: 247 % of control and 265 % of control
dose: 58.5 mg/kg/injection, schedule: Q01DX001 (oral), vehicle: other
  T/C: 306 % of control and 356 % of control and 442 % of control
dose: 62.0 mg/kg/injection, schedule: Q01DX001 (ip), vehicle: carboxymethylcellulose (CMC)
  T/C: 303 % of control and 306 % of control
dose: 87.0 mg/kg/injection, schedule: Q01DX001 (ip), vehicle: other
  T/C: 151 % of control
dose: 93.0 mg/kg/injection, schedule: Q01DX001 (ip), vehicle: carboxymethylcellulose (CMC)
  T/C: 188 % of control and 268 % of control
dose: 117.0 mg/kg/injection, schedule: Q01DX001 (oral), vehicle: other
  T/C: 111 % of control and 154 % of control and 294 % of control
dose: 139.0 mg/kg/injection, schedule: Q01DX001 (ip), vehicle: carboxymethylcellulose (CMC)
  T/C: 105 % of control and 101 % of control

## O=C1N[C@@H]([C@H]2CC[C@H](Cl)CN2)C(=O)N[C@H]1[C@H]1CC[C@H](Cl)CN1
dose: 0.5 mg/kg/injection, schedule: Q01DX009 (ip), vehicle: saline
  T/C: 110 % of control
dose: 1.0 mg/kg/injection, schedule: Q01DX001 (ip), vehicle: saline
  T/C: 102 % of control
dose: 1.0 mg/kg/injection, schedule: Q01DX009 (ip), vehicle: saline
  T/C: 118 % of control
dose: 2.0 mg/kg/injection, schedule: Q01DX001 (ip), vehicle: saline
  T/C: 103 % of control and 100 % of control
dose: 4.0 mg/kg/injection, schedule: Q01DX001 (ip), vehicle: saline
  T/C: 103 % of control and 119 % of control
dose: 8.0 mg/kg/injection, schedule: Q01DX001 (ip), vehicle: saline
  T/C: 105 % of control and 123 % of control

## CN(N=O)C(N)=O
dose: 18.0 mg/kg/injection, schedule: Q01DX001 (ip), vehicle: saline
  T/C: 102 % of control
dose: 36.0 mg/kg/injection, schedule: Q01DX001 (ip), vehicle: saline
  T/C: 110 % of control
dose: 72.0 mg/kg/injection, schedule: Q01DX001 (ip), vehicle: saline
  T/C: 152 % of control

## Cc1cccc(C)c1NC(=O)N(CCCl)N=O
dose: 13.0 mg/kg/injection, schedule: Q01DX001 (ip), vehicle: carboxymethylcellulose (CMC)
  T/C: 113 % of control
[2]
  T/C: 112 % of control
[3]
  T/C: 119 % of control
